11 compounds from patent US10604526B2, “Chemokine receptor modulators and uses thereof” (RAPT THERAPEUTICS, INC., priority 2016, dated 2020) can be followed below.

Structures are written as SMILES. pIC50: −log10 of the molar value.

The experiment addresses T1, hCCR4 (Homo sapiens, UniProt P51679).
T1 sequence (P51679 1-360): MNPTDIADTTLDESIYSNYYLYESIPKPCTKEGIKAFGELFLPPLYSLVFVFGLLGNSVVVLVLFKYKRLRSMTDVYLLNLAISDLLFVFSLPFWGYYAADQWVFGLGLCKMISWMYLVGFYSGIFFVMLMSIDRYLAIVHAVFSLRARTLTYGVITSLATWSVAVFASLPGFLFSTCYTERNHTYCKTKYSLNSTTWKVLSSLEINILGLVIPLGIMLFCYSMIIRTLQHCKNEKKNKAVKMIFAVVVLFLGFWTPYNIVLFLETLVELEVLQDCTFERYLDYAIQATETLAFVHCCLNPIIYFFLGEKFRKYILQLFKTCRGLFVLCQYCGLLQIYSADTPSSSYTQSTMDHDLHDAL
Kind of experiment: Calcium flux assay. Type of experiment: cell-based. As to conditions: Chem5-hCCR4 cells, CCL22 at EC80 of 1.5 nM, FLIPR Calcium 6 dye; read-out: Potency (IC50). As to the method: Calcium Flux Assay. Compounds were evaluated in a calcium flux assay substantially performed as follows. Chem5-hCCR4 cells (EMD Millipore, Hayward, Calif.; HTS009C) were cultured under standard conditions and frozen in aliquots of 10×10^6 cells/mL. The day prior to compound testing, a vial was rapidly thawed and pipetted into 20 mL media (DMEM+10% FBS+1% Pen-Strep+1% L-glutamine). Cells were harvested by centrifugation and re-suspended in fresh culture medium. 25 μL of cell suspension was seeded into 384-well plates (Corning, Tewksbury, Mass.; CellBind with black wall/clear bottom). The plates were centrifuged at 300 g for 10 seconds and incubated overnight at 37° C. and 5% CO2. The day of compound testing, media was removed from the plates and 25 μL serum free media was added to each well. Plates were returned to the incubator for 2 h. 25 μL assay buffer (Hank's balanced salt solution+20 mM HEPES pH 7.4) containing FLIPR Calcium 6 dye (Molecular Devices, Sunnyvale, Calif.; # R8191) and probenecid (2.5 mM) was added to each well and incubated at 37° C. and 5% CO2 for 2 h. Compounds in DMSO were added to the plates using an HP D300e digital dispenser, and all wells were normalized to contain 0.25 μL (0.5%) DMSO. Plates were incubated for 1 hour at 37° C. and 5% CO2. CCL22 (Peprotech; Rockyhill, N.J.) was diluted in assay buffer containing 0.1% BSA to 7.5 nM (corresponding to 5×EC80 of 1.5 nM).
Assay plates and working solution of CCL22 were transferred to the FlexStation plate reader (Molecular Devices) at 37° C. for 5 min of equilibration. Fluorescence recordings at 485 excitation/525 emission were performed at 2.5 second intervals. At t=16 seconds, 12.5 μL of CCL22 solution was added to each well and reads continued for 30 seconds at 2.5 second intervals. The minimum fluorescence (Fmin) was calculated by averaging the reads prior to ligand addition and the change in fluorescence (ΔF) was calculated by subtracting the Fmin from the average of the reads following ligand addition. The response ΔF/Fmin was plotted as a function of the compound concentration and the IC50 values were determined by non-linear regression analysis using a 4-parameter fit in either PRISM software (GraphPad; La Jolla, Calif.) or Dotmatics Browser.
Turning to `C[C@H](c1ccc(Cl)cc1Cl)n1nc(C(F)(F)F)c2ncc(N3CC(C4CCCN(CCCS(C)(=O)=O)C4)C3)nc21` (mixture of isomers) [Example 50, 1-((R)-1-(2,4-Dichlorophenyl)ethyl)-6-(3-((R)-1-(3-(methylsulfonyl)propyl)piperidin-3-yl)azetidin-1-yl)-3-(trifluoromethyl)-1H-pyrazolo[3,4-b]pyrazine and 1-((R)-1-(2,4-dichlorophenyl)ethyl)-6-(3-((S)-1-(3-(methylsulfonyl)propyl)piperidin-3-yl)azetidin-1-yl)-3-(trifluoromethyl)-1H-pyrazolo[3,4-b]pyrazine], the pIC50 (commonly the negative decadic logarithm of the IC50, by convention in mol/L) is above 7.00.

Turning to `C[C@H](c1ccc(Cl)cc1Cl)n1nc(C#N)c2ncc(N3CC(C4CCCN(CCCC(C)(C)O)C4)C3)nc21` (mixture of isomers) [Example 56, 1-((R)-1-(2,4-dichlorophenyl)ethyl)-6-(3-((S)-1-(4-hydroxy-4-methylpentyl)piperidin-3-yl)azetidin-1-yl)-1H-pyrazolo[3,4-b]pyrazine-3-carbonitrile and 1-((R)-1-(2,4-dichlorophenyl)ethyl)-6-(3-((R)-1-(4-hydroxy-4-methylpentyl)piperidin-3-yl)azetidin-1-yl)-1H-pyrazolo[3,4-b]pyrazine-3-carbonitrile], the negative logarithm of the IC50 (pIC50) was above 7.00.

As to `CNS(=O)(=O)CCN1CCCC(C2CN(c3cnc4c(C#N)nn([C@H](C)c5ccc(Cl)cc5Cl)c4n3)C2)C1` (mixture of isomers) [Example 57, 2-(S)-3-(1-(3-cyano-1-((R)-1-(2,4-dichlorophenyl)ethyl)-1H-pyrazolo[3,4-b]pyrazin-6-yl)azetidin-3-yl)piperidin-1-yl)-N-methylethane-1-sulfonamide and 2-((R)-3-(1-(3-cyano-1-((R)-1-(2,4-dichlorophenyl)ethyl)-1H-pyrazolo[3,4-b]pyrazin-6-yl)azetidin-3-yl)piperidin-1-yl)-N-methylethane-1-sulfonamide], the pIC50 is above 7.00.

As to `C[C@H](c1ccc(Cl)cc1Cl)n1nc(C#N)c2ncc(N3CC(C4CCCN(CCS(=O)(=O)N5CCOCC5)C4)C3)nc21` (mixture of isomers) [Example 58, 1-((R)-1-(2,4-dichlorophenyl)ethyl)-6-(3-((S)-1-(2-(morpholinosulfonyl)ethyl)piperidin-3-yl)azetidin-1-yl)-1H-pyrazolo[3,4-b]pyrazine-3-carbonitrile and 1-((R)-1-(2,4-dichlorophenyl)ethyl)-6-(3-((R)-1-(2-(morpholinosulfonyl)ethyl)piperidin-3-yl)azetidin-1-yl)-1H-pyrazolo[3,4-b]pyrazine-3-carbonitrile], the negative logarithm of the IC50 (pIC50) was 6.30 to 7.00.

Consider `C[C@H](c1ccc(Cl)cc1Cl)n1nc(C#N)c2ncc(N3CC(C4CCCN(Cc5cc[nH]n5)C4)C3)nc21` (mixture of isomers) [Example 59, 6-(3-((S)-1-((1H-pyrazol-3-yl)methyl)piperidin-3-yl)azetidin-1-yl)-1-((R)-1-(2,4-dichlorophenyl)ethyl)-1H-pyrazolo[3,4-b]pyrazine-3-carbonitrile and 6-(3-((R)-1-((1H-pyrazol-3-yl)methyl)piperidin-3-yl)azetidin-1-yl)-1-((R)-1-(2,4-dichlorophenyl)ethyl)-1H-pyrazolo[3,4-b]pyrazine-3-carbonitrile], for which the pIC50 was above 7.00.

Regarding `C[C@H](c1ccc(Cl)cc1Cl)n1nc(C#N)c2ncc(N3CC(C4CCCN(Cc5c[nH]cn5)C4)C3)nc21` (mixture of isomers) [Example 60, 6-(3-((S)-1-(1H-imidazol-4-yl)methyl)piperidin-3-yl)azetidin-1-yl)-1-((R)-1-(2,4-dichlorophenyl)ethyl)-1H-pyrazolo[3,4-b]pyrazine-3-carbonitrile and 6-(3-((R)-1-((1H-imidazol-4-yl)methyl)piperidin-3-yl)azetidin-1-yl)-1-((R)-1-(2,4-dichlorophenyl)ethyl)-1H-pyrazolo[3,4-b]pyrazine-3-carbonitrile], the pIC50 is above 7.00.

On to `C[C@H](c1ccc(Cl)cc1Cl)n1nc(C#N)c2ncc(N3CC(C4CCCN(C5CCS(=O)(=O)CC5)C4)C3)nc21` (mixture of isomers) [Example 61, 1-((R)-1-(2,4-dichlorophenyl)ethyl)-6-(3-((R)-1-(1,1-dioxidotetrahydro-2H-thiopyran-4-yl)piperidin-3-yl)azetidin-1-yl)-1H-pyrazolo[3,4-b]pyrazine-3-carbonitrile and 1-((R)-1-(2,4-dichlorophenyl)ethyl)-6-(3-((S)-1-(1,1-dioxidotetrahydro-2H-thiopyran-4-yl)piperidin-3-yl)azetidin-1-yl)-1H-pyrazolo[3,4-b]pyrazine-3-carbonitrile], for which the negative-log IC50 (pIC50) was above 7.00.

Turning to `C[C@H](c1ccc(Cl)cc1Cl)n1nc(C#N)c2ncc(N3CC(C4CCCN(C5CCOCC5)C4)C3)nc21` (mixture of isomers) [Example 62, 1-((R)-1-(2,4-dichlorophenyl)ethyl)-6-(3-((R)-1-(tetrahydro-2H-pyran-4-yl)piperidin-3-yl)azetidin-1-yl)-1H-pyrazolo[3,4-b]pyrazine-3-carbonitrile and 1-((R)-1-(2,4-dichlorophenyl)ethyl)-6-(3-((S)-1-(tetrahydro-2H-pyran-4-yl)piperidin-3-yl)azetidin-1-yl)-1H-pyrazolo[3,4-b]pyrazine-3-carbonitrile], the negative logarithm of the IC50 (pIC50) was above 7.00.

As for `CC(=O)NCCN1CCCC(C2CN(c3cnc4c(C)nn([C@H](C)c5ccc(Cl)cc5Cl)c4n3)C2)C1` (mixture of isomers) [Example 63, N-(2-((R)-3-(1-(1-((R)-1-(2,4-dichlorophenyl)ethyl)-3-methyl-1H-pyrazolo[3,4-b]pyrazin-6-yl)azetidin-3-yl)piperidin-1-yl)ethyl)acetamide and N-(2-((S)-3-(1-(1-((R)-1-(2,4-dichlorophenyl)ethyl)-3-methyl-1H-pyrazolo[3,4-b]pyrazin-6-yl)azetidin-3-yl)piperidin-1-yl)ethyl)acetamide], the negative-log IC50 (pIC50) was above 7.00.

For `Cc1nn([C@H](C)c2ccc(Cl)cc2Cl)c2nc(N3CC(C4CCCN(CCNS(C)(=O)=O)C4)C3)cnc12` (mixture of isomers) [Example 64, N-[2-[(R)-3-[1-[1-[(1R)-1-(2,4-dichlorophenyl)ethyl]-3-methyl-pyrazolo[3,4-b]pyrazin-6-yl]azetidin-3-yl]-1-piperidyl]ethyl]methanesulfonamide and N-[2-[(S)-3-[1-[1-[(1R)-1-(2,4-dichlorophenyl)ethyl]-3-methyl-pyrazolo[3,4-b]pyrazin-6-yl]azetidin-3-yl]-1-piperidyl]ethyl]methanesulfonamide], the pIC50 was above 7.00.

In the case of `Cc1nn([C@H](C)c2ccc(Cl)cc2Cl)c2nc(N3CC(C4CCCN(CCNS(=O)(=O)C(C)C)C4)C3)cnc12` (mixture of isomers) [Example 65, N-(2-((R)-3-(1-(1-((R)-1-(2,4-dichlorophenyl)ethyl)-3-methyl-1H-pyrazolo[3,4-b]pyrazin-6-yl)azetidin-3-yl)piperidin-1-yl)ethyl)propane-2-sulfonamide and N-(2-((S)-3-(1-(1-((R)-1-(2,4-dichlorophenyl)ethyl)-3-methyl-1H-pyrazolo[3,4-b]pyrazin-6-yl)azetidin-3-yl)piperidin-1-yl)ethyl)propane-2-sulfonamide], the negative-log IC50 (pIC50) was above 7.00.
